Source: US20180072944A1, “Stannous Fluorescent Probe” (priority 2016, published 2018)

Key:
[1] = Metal ion sensing: fluorescence titration and selectivity experiments; type: physicochemical; conditions: for fluorescence at 580 nm upon addition of Sn^2+ / selectivity: metal ions that turn on fluorescence / fluorescence of probe solution without metal ion: 20 μM in ethanol-water (1:1, v/v, pH 7.04); for fluorescence at 580 nm upon addition of Sn^2+: Sn^2+ 0-20 eq; for fluorescence at 580 nm upon addition of Sn^2+ / selectivity: metal ions that turn on fluorescence / fluorescence enhancement with other transition and heavy metal ions: excitation 560 nm; for fluorescence of probe solution without metal ion: no Sn^2+; for fluorescence enhancement with other transition and heavy metal ions: K^+, Ag^+, Ca^2+, Mg^2+, Zn^2+, Pb^2+, Ni^2+, Mn^2+, Co^2+, Cd^2+, Hg^2+, 20 μM probe
Method: The procedure for metal ion sensing is described. Solutions of the metal ions (10.0 mM) are prepared in deionized water. […] Sn^2+ stock solution is added into the quartz optical cell gradually by micro-pipette. Spectral data is recorded at 5 min after addition. […] For fluorescence measurements, excitation is provided at 560 nm, while emission is collected from 565 to 700 nm. Metal ion response is described. Fluorescent ‘turn on’ probe is conducive for detection target. […] High-level selectivity is of paramount importance for an excellent chemosensor. […] Metal ion response of R1 and R2 are suited for detection of Sn^2+ in living Streptococcus mutans cells.

[2] = pH titration of fluorescence; type: physicochemical; conditions: 10 μM in PBS, emission 580 nm, excitation 560 nm
Method: pH titration of Compounds R1 and R2 is described. Stock solutions of Compounds R1 and R2 are respectively added to sodium phosphate buffers of various pH to a final concentration of 10 μM. The fluorescence emission spectra are recorded as a function of pH using λex at 560 nm. The titration curves are plotted by fluorescence emission intensities at 580 nm versus pH.
The impact of pH values on fluorescence is described. The pirolactam ring of the rhodamine derivatives will open in a certain pH range and indicates the fluorescence of rhodamine. It is therefore necessary to check the fluorescence properties of Compounds R1 and R2 in solutions with different pH values. Furthermore, in the cell, the acidity of different organelles may vary greatly. For example, the normal pH of lysosomes is 4.5-5.5, which may induce ring opening of R1 or R2. Considering the application of Sn^2+ probe R1 and R2 intracellular or extracellular may be disturbed by the pH, the acid-base titration experiments are carried out by adjusting the pH with an aqueous solution of NaOH and HCl in Phosphate-Buffered Saline (“PBS”) (FIG. 2 a and b). […] It is predicted that R1 will be turned on by lysosomes in cell without Sn^2+ present. FIGS. 2a and 2b show the dependence of fluorescence at 580 nm of comparative Compound R1 and inventive Compound R2 (10 μM) at different pH in PBS solution. Excitation was at 560 nm.

lysosomes of KB cells = test: Colocalization experiment with LysoTracker Green DND in KB cells; type: cell-based; conditions: 50 μM Sn^2+, 10 μM probe, 1 μM LysoTracker Green DND, 30 min each
Method: Colocalization experiments are described. 50 μM SnF2 in the culture media is added to the cells. The cells are incubated at 37° C. for 30 min, and washed with PBS three times to remove the excess SnF2. After washing with PBS (2 mL×3) to remove the excess SnF2, the cells are treated with 10 μM of Compound R1 or R2 separately for 30 min, and washed with PBS three times to remove the excess probe and bathed in PBS (2 mL) before imaging. Cell imaging is then carried out as the former. After washing with PBS (2 mL×3) to remove the excess probes, the cells were treated with 1.0 μM LysoTracker® Green DND at 37° C. for 30 min. Cell imaging is then carried out as the former.
Firstly, the KB cells are stained with 50 μM Sn^2+ at 37° C. for 30 min, and then separately incubated with 10 μM of Compound R1 and 1 μM LysoTracker® Green DND or Compound R2 and 1 μM LysoTracker® Green DND under the same conditions. […] There is no fluorescence in other intracellular sites. […] This may be a transmission path of Sn. […] Many pharmaceutical agents, including various large and small molecules, must be delivered specifically to particular cell organelles in order to efficiently exert their therapeutic action. Such delivery is still mainly an unresolved problem, but targeting detection is helpful attempt. […]

[3] = tested on: Streptococcus mutans (ATCC® 700610™); test: Fluorescence imaging of Sn^2+ in bacteria (confocal); type: cell-based; conditions: for fluorescence change in Streptococcus mutans after incubation with Sn^2+: 10 μM probe 60 min at 37° C., then 50 μM Sn^2+; for fluorescence in Streptococcus mutans without Sn^2+ present: 10 μM probe, 37° C., 60 min, no Sn^2+
Method: Cell culture preparation is described. The KB cell line was provided by of Biochemistry and Cell Biology (China). Cells are grown in MEM (Modified Eagle's Medium) supplemented with 10% FBS (Fetal Bovine serum) and 5% CO2 at 37° C. Cell ([…]) are plated on […] glass coverslips and allowed to adhere for 24 hours. The Streptococcus mutans (ATCC® 700610™) is prepared by inoculating the single colony from the BHI (Brain-Heart Infusion) agar plate into 5 mL BHI broth and incubating at 37° C. for 48 h.
For fluorescence imaging of Sn^2+ in bacteria is described. Freshly diluted Streptococcus mutans (ATCC® 700610™) is sub cultured in the presence of the 10 μM Compound R1 or R2, separately at 37° C. on a shaker bed at 400 rpm for 60 min. Then the bacteria are collected by centrifugation at 8,000 rpm for 2 min and rinsed with Saline (pH=7.0). The process is repeated three times before imaging. After washing with Saline (2 mL×3) to remove the excess probes, the bacteria is cultured in the presence of the 50 μM SnF2 at 37° C. on a shaker bed at 400 rpm for 60 min. Then the bacteria are collected by centrifugation at 8,000 rpm for 2 min and rinsed with Saline (pH=7.0). The process was repeated three times before imaging. The light source is at =543 nm provided excitation and emission are collected in the range=560-660 nm.
Turning to FIGS. 5a and 5b, fluorescence imaging of Sn^2+ in bacteria is described. FIGS. 5a and 5b show simplified illustrations derived based upon CLSM. The illustrations are not drawn to scale but rather enlarged for illustrative purposes. It has been reported that Sn^2+ can inhibit metabolism of Streptococcus mutans. The practical applicability of Compounds R1 and R2 as a Sn^2+ probe in the fluorescence imaging of living Streptococcus mutans (ATCC® 700610™) are investigated. Firstly, the Streptococcus mutans (ATCC® 700610™) are separately stained with 10 μM Compound R1 or R2 at 37° C. for 60 min.
FIGS. 5a and 5b show simplified illustrations derived based upon CLSM images of Streptococcus mutans (ATCC® 700610™). The illustrations are not drawn to scale but rather enlarged for illustrative purposes. (a1-c1) and (a2-c2) Cells are separately incubated with 10 μM comparative Compound R1 and inventive Compound R2 for 30 min, (d1-f1) and (d2-f2) followed incubated with 50 μM SnF2 for 30 min. Emission is collected in red channel at 560-660 nm (b1, e1, b2, e2); a1, d1, a2, d2 are bright field images and c1, f1, c2, f2 are overlay images, respectively (λex=543 nm).

Compound	fluorescence at 580 nm upon addition of Sn^2+ [1]	selectivity: metal ions that turn on fluorescence [1]	fluorescence of probe solution without metal ion [1]	fluorescence enhancement with other transition and heavy metal ions [1]	pH range for inducing fluorescence turning on [2]	colocalization of probe fluorescence with LysoTracker Green DND (lysosomes of KB cells)	fluorescence change in Streptococcus mutans after incubation with Sn^2+ [3]	fluorescence in Streptococcus mutans without Sn^2+ present [3]
CCN(CC)c1ccc2c(c1)Oc1cc(N(CC)CC)ccc1C21c2ccccc2C(=O)N1NC(=O)OC(C)(C)C [Compound R2]	turned on and grown drastically	tuning on just in the presence of Sn^2+ and Cr^3+	non-fluorescent	minimal enhancement	2-4.5 pH	overlap with LysoTracker® Green DND very well	significant fluorescence increasing	no fluorescence emission
Spiro[1H-isoindole-1,9′-[9H]xanthen]-3(2H)-one, 2-[2-[bis(2-hydroxyethyl)amino]amino]ethyl]-3′,6′-bis(diethylamino) [Compound R1]	turned on and grown drastically	tuning on just in the presence of Sn^2+ and Cr^3+	non-fluorescent	minimal enhancement	2.5-6 pH	overlap with LysoTracker® Green DND very well	significant fluorescence increasing	no fluorescence emission
